Measured values reported in patent US11771709B2, “ALK protein degradation agent and anti-tumor application thereof” (ShanghaiTech University, priority 2017, dated 2023).
Where two headings read alike, the source gives them in different places.

Legend:
SR (NPM-ALK) cells = assay: Growth inhibition IC50 in ALCL SR cells (CCK8/WST, 72 hours); type: cell-based; details: SR cells, WST
Method: (§1) SR (NPM-ALK) and NCI-H2228 (EML4-ALK, V3) cells were purchased from ATCC. […] All Cells were cultured in RPMI1640 medium with 10% FBS and Penicillin-Streptomycin in 37° C. incubator with 5% CO2.
(§2) Cells were seeded at specific density in 96 well plates one day before treatment. […] Viable cells were measured via CCK8 reagent and IC50s were calculated via Prism Graphad. Experiments were repeated at least three times.

[1] = test system: NCI-H2228 (EML4-ALK, V3) cells; assay: Growth inhibition IC50 in lung adenocarcinoma H2228 cells (WST); type: cell-based; details: Homo sapiens, WST (Table 3)
Excerpt: Experiments were repeated at least three times.
Besides above, we also tested the dosage-dependent effects on the growth inhibition in H2228 cells. […] (Table 3).

Ba/F3 (EML4-ALK/L1196M) = molecular target: T1, Ba/F3 (EML4-ALK/L1196M) (Homo sapiens, UniProt Q9UM73, L1196M, cells depend on it); assay: Growth inhibition IC50 in Ba/F3 cells expressing EML4-ALK L1196M; type: cell-based
T1 construct: Q9HC35 (Echinoderm microtubule-associated protein-like 4)
Method: as §2

Ba/F3 (EML4-ALK/C1156Y) = molecular target: T2, Ba/F3 (EML4-ALK/C1156Y) (Homo sapiens, UniProt Q9UM73, C1156Y, cells depend on it); assay: Growth inhibition IC50 in Ba/F3 cells expressing EML4-ALK C1156Y; type: cell-based
T2 construct: Q9HC35 (Echinoderm microtubule-associated protein-like 4)
Method: as §2

[2] = test system: PC9 (EGFR, exon 19 del) cells; assay: Growth inhibition IC50 in EGFR mutant lung adenocarcinoma PC9 cells; type: cell-based; details: Homo sapiens
Method: as §1, §2

[3] = test system: PC9Brc1 (EGFR, exon 19 del+T790M) cells; assay: Growth inhibition IC50 in EGFR mutant lung cancer PC9Brc1 cells; type: cell-based; details: CTB, n ≥ 3, read-out: Half Inhibitory Concentration (IC50) Mean
Method: as §1, §2

[4] = test system: SW48 cell line (EGFR G719S); assay: Growth inhibition IC50 in EGFR G719S colorectal cancer cell line SW48; type: cell-based; details: Homo sapiens, CTG, n = 2, read-out: Half Inhibitory Concentration (IC50) Mean
Method: as §2

[5] = test system: U118MG cells (FIG-ROS1 gene fusion); assay: Growth inhibition IC50 in ROS1 mutant glioblastoma cell line U118MG (72 hours); type: cell-based; details: Homo sapiens, U-118-MG
MOLM13 cells (FLT3-ITD) = assay: Growth inhibition IC50 in FLT3-ITD AML cell line MOLM13; type: cell-based; details: Homo sapiens
Method: as §2

[6] = molecular target: T3, ALK protein in SR (NPM-ALK) cells (Homo sapiens, UniProt Q9UM73); assay: Western blot of ALK protein level (degradation, DC50), ALK phosphorylation and downstream signaling in SR cells; type: cell-based; details: for ALK protein degradation: 16 hours, up to 500 nM
T3 construct: NPM (nucleophosmin, NPM1, P06748) fusion partner; host or cells: SR (ALCL) cells; the other entry of the earlier key: NPM1 (P06748, Nucleophosmin)

[7] = test system: ALK positive non-small cell lung cancer; details: cited from earlier work
[8] = molecular target: T4, ALK protein in H3122 (EML4-ALK) cells (Homo sapiens, UniProt Q9UM73); assay: Western blot of ALK protein level (degradation, DC50), ALK phosphorylation and downstream signaling in H3122 cells; type: cell-based; details: for DC50: ALK protein degradation in H3122 cells
T4 construct: EML4 (Echinoderm microtubule-associated protein-like 4, Q9HC35) fusion partner, variant 1; host or cells: NCI-H3122 lung adenocarcinoma cells; the other entry of the earlier key: EML4 (Q9HC35, Echinoderm microtubule-associated protein-like 4)
Method: Cancer cells were seeded in 1 ml RPMI1640 medium in 24-well plate at the density of 3×10^5 or 1.5×10^5 cells/ml. […] Then cells were washed twice with PBS and lyzed in RIPA lysis buffer with Halt Proteinase and Phosphotase inhibitor. Equal amount of proteins were loaded to run SDS-PAGE gels after denature. The gels were blotted to PVDF membrane. After incubating with first and secondary antibodies, the images were developed using SuperSignal West Pico Chemiluminescent Substrate.
DC50 (concentration required to degrade protein by half) were calculated based on the intensity from western blot, and data were analyzed via Prism GraphPad with non-linear regression.

[9] = molecular target: T5, ALK protein in H3122 cells (Homo sapiens, UniProt Q9UM73); assay: ALK protein stability after stopping translation with cycloheximide in H3122 cells; type: cell-based; details: 0.5 uM compound, 1 ug/ml cycloheximide, 12 hours (Ceritinib), 7 hours (SIAIS074017)
T5 construct: EML4 (Echinoderm microtubule-associated protein-like 4, Q9HC35) fusion partner, variant 1; host or cells: NCI-H3122 lung adenocarcinoma cells; the other entry of the earlier key: EML4 (Q9HC35, Echinoderm microtubule-associated protein-like 4)
Method: The mechanism of PROTAD compound to degrade its target protein acts through recruiting E3 ubiquitining ligase to the proximity of its target protein, which leads to the target protein being highly ubiquitinzed and eventually being degraded. In order to see the mechanism of ALK PROTAD compounds we developed, we firstly examined the half-life of ALK protein. Because the total level of ALK protein was determined by both the translational activity and protein degradation, we used cyclohexmide to stop protein translation to examine the effect of ALK PROTAD compounds on ALK protein stabilities.
We listed data for Ceritinib-based ALK PROTAD compounds here as an example, and data for other ALK PROTAD compounds were tested in the same way and similar results were found. […] The difference at the total ALK protein level will reflect the different influence of drugs on protein stability.

[10] = test system: NCI-H3122 (EML4-ALK, V1) cells; assay: Growth inhibition IC50 in lung cancer H3122 cells (Cell Titer Blue / Cell Titer Glo)
Method: as §1, §2

Ba/F3 (EML4-ALK/WT) = molecular target: T6, Ba/F3 (EML4-ALK/WT) (Homo sapiens, UniProt Q9UM73); assay: Growth inhibition IC50 in Ba/F3 cells expressing EML4-ALK wild type; type: cell-based
T6 construct: Q9HC35 (Echinoderm microtubule-associated protein-like 4)
Method: as §2

[11] = test system: ALK protein in H2228 (EML4-ALK) cells; assay: Western blot of ALK protein level, ALK phosphorylation and downstream signaling in H2228 cells; type: cell-based
Method: Cancer cells were seeded in 1 ml RPMI1640 medium in 24-well plate at the density of 3×10^5 or 1.5×10^5 cells/ml. The next day cells were treated with different concentration of drugs for 16 hours. Then cells were washed twice with PBS and lyzed in RIPA lysis buffer with Halt Proteinase and Phosphotase inhibitor. Equal amount of proteins were loaded to run SDS-PAGE gels after denature. The gels were blotted to PVDF membrane. After incubating with first and secondary antibodies, the images were developed using SuperSignal West Pico Chemiluminescent Substrate.
The effect of Brigtinib based PROTAD molecules on the ALK protein total level were studied by western blot in ALCL SR (NPM-ALK) cell line and lung adenocarcinoma cell line H2228 and H3122 (EML4-ALK).
The effects of compounds SIAIS164008 and SIAIS164018 of the present invention on the activation of ALK mediated signaling pathways were also studied in SR cells and H2228 cells. […] The overall effect of compound of SIAIS164018 was better than that of SIAIS164008.

[12] = Pharmacokinetics (PK) study in SD rat (IV, IP, PO; LC-MS/MS); type: in vivo; details: Sprague-Dawley, serum
Method: SD rat were used to study the PK of ALK PROTAD compounds. ALK PROTAD compounds SIAIS164008, SIAIS164018, SIAIS164023 and SIAIS151118 were administrated into SD rat via three different routes: IV (Intravenous Injection), IP (Intraperitoneal Injection) and PO ([…]). Blood samples at different sampling time points up to 24 hours post dosing were collected from each animal and analyzed with LC-MS/MS to calculate the PK for each chemical.

[13] = Ceritinib based ALK PROTAD compounds (Table 5)

In the case of COc1cc(N2CCC(N3CCN(C)CC3)CC2)ccc1Nc1ncc(Cl)c(Nc2ccccc2P(C)(C)=O)n1 [Brigatinib, reference compound], the IC50 (SR (NPM-ALK) cells; 72 hours, Brigatinib-based PROTAD molecules (Table 3)) is reported as 2.8 nM, the IC50 [1] is reported as 45.2 nM and the GI50 (Ba/F3 (EML4-ALK/L1196M)) is reported as 35.9 nM. The GI50 (Ba/F3 (EML4-ALK/C1156Y)) was 36.8 nM, the IC50 ([2]; PC-9, read-out: Half Inhibitory Concentration (IC50) Mean) was 102 nM and the IC50 [3] was 246 nM. The IC50 [4] was 2720 nM, the IC50 ([5]; 72 h) was roughly 6800 nM and the IC50 ([5]; 72 h, read-out: Half Inhibitory Concentration (IC50) Mean) was 6800 nM. For the same compound, the IC50 (MOLM13 cells (FLT3-ITD); MOLM-13) was roughly 152 nM, the IC50 (MOLM13 cells (FLT3-ITD); MOLM-13, read-out: Half Inhibitory Concentration (IC50) Mean) was 152 nM and the “ALK protein levels, time- and dose-dependence” value ([6]; SR cells, 30 nM to 300 uM, 4-24 hours) was “did not affect ALK protein levels”. The ALK protein degradation ([6]; SR cells, western blot) was “did not degrade ALK proteins”, the disease control rate ([7]; patients) was “about 86%” and the response rate ([7]; patients) was 55%.
In the case of Cc1cc(Nc2ncc(Cl)c(Nc3ccccc3S(=O)(=O)C(C)C)n2)c(OC(C)C)cc1C1CCNCC1 [Ceritinib, reference compound], the IC50 (SR (NPM-ALK) cells; [13]) is reported as 16 nM, the “ALK protein level / degradation” value ([8]; H3122 cells, western blot, up to 500 nM) is reported as “did not affect ALK protein level” and the “ALK protein level after stop of translation (protein stability)” value [9] is reported as “did not show much difference”. The “increase of progression free survival comparing to second line chemotherapy” value ([7]; second line treatment (Shaw et al., 2017)) was “about 4 months”, the IC50 ([10]; H3122 cells, CTB (Cell Titer Blue)) was 14 nM and the IC50 ([10]; H3122 cells, CTG (Cell Titer Glo)) was 44 nM.
With COc1cc(N2CCC(N3CCN(C(=O)CCOCCOCCNc4cccc5c4C(=O)N(C4CCC(=O)NC4=O)C5=O)CC3)CC2)ccc1Nc1ncc(Cl)c(Nc2ccccc2P(C)(C)=O)n1 (stereo not drawn) [SIAIS164008, 4-((2-(2-(3-(4-(1-(4-((5-chloro-4-((2-(dimethylphosphoryl)phenyl)amino)pyrimidin-2-yl)amino)-3-methoxyphenyl)piperidin-4-yl)piperazin-1-yl)-3-oxopropoxy)ethoxy)ethyl)amino)-2-(2,6-dioxopiperidin-3-yl)isoindoline-1,3-dione] the IC50 (SR (NPM-ALK) cells; 72 h, Brigatinib-based PROTAD molecules (Table 3)) was 3.6 ± 2.1 nM, the IC50 [1] was 74 nM and the GI50 (Ba/F3 (EML4-ALK/WT)) was 115 nM. For the same compound, the GI50 (Ba/F3 (EML4-ALK/L1196M)) was 376 nM, the GI50 (Ba/F3 (EML4-ALK/C1156Y)) was 243 nM and the IC50 ([2]; PC-9, PC9 cells, CTB, n ≥ 3, read-out: Half Inhibitory Concentration (IC50) Mean) was 265 nM. The IC50 [3] was 1830 nM, the IC50 [4] was 15200 nM and the IC50 ([5]; U118MG cells, 72 hours, n = 2, reagent CTG, read-out: Half Inhibitory Concentration (IC50) Mean) was 3520 nM. It also gave an IC50 ([5]; U118MG cells, 72 hours, read-out: IC50) of roughly 3520 nM, an IC50 (MOLM13 cells (FLT3-ITD); MOLM-13, MOLM13 cells, n = 2, reagent CTG, read-out: Half Inhibitory Concentration (IC50) Mean) of 392 nM and a DC50 ([6]; ALK protein degradation in SR cells) of 1 to 10 nM. The “concentration inhibiting the phosphorylation of ALK proteins” value ([6]; SR cells, western blot) was 0.1 nM, the “downstream signaling pathway (PI3K/AKT, MEK/ERK and STAT3)” value ([6]; SR cells, western blot) was “significantly inhibited” and the ALK protein degradation ([6]; SR cells, western blot) was “effectively degrade ALK proteins at nano mole concentration”. The DC50 [8] was 10 to 50 nM, the “phosphorylation of ALK protein and activation of PI3K/AKT pathway” value [11] was “inhibited” and the bioavailability ([12]; IP, 2 mg/kg) was 93%. It also gave a half-life ([12]; IP, 2 mg/kg, read-out: serum half-life (converted)) of 1.54 h, a Tmax ([12]; IP, 2 mg/kg, read-out: time to maximal serum peak level (Tmax)) of roughly 0.42 h and a clearance ([12]; IV, single dose 2 mg/kg, read-out: clearance rate, mean value) of roughly 414 mL/min/kg. It also gave a half-life ([12]; IV, single dose 2 mg/kg, read-out: serum clearance half-life (converted)) of roughly 0.85 h, a bioavailability ([12]; PO, 10 mg/kg) of 14.9% and a Tmax ([12]; PO, 10 mg/kg, read-out: Tmax) of 2.75 h. The half-life ([12]; PO, 10 mg/kg, read-out: serum half-life (converted)) was 3.98 h.
For Cc1cc(Nc2ncc(Cl)c(Nc3ccccc3S(=O)(=O)C(C)C)n2)c(OC(C)C)cc1C1CCN(C(=O)CCC(=O)N[C@H](C(=O)N2C[C@H](O)C[C@H]2C(=O)NCc2ccc(-c3scnc3C)cc2)C(C)(C)C)CC1 [SIAIS074017, (2S,4R)-1-((S)-2-(4-(4-(4-((5-chloro-4-((2-(isopropylsulfonyl)phenyl)amino)pyrimidin-2-yl)amino)-5-isopropoxy-2-methylphenyl)piperidin-1-yl)-4-oxobutanamido)-3,3-dimethylbutanoyl)-4-hydroxy-N-(4-(4-methylthiazol-5-yl)benzyl)pyrrolidine-2-carboxamide], the IC50 (SR (NPM-ALK) cells; [13]) was 116 nM, the DC50 [8] was 100 to 500 nM and the “ALK protein level after stop of translation (protein stability)” value [9] was “significantly reduced ALK protein level”. It also gave an IC50 ([10]; Homo sapiens, NCI-H3122, H3122 cells, CTB (Cell Titer Blue)) of 45 nM and an IC50 ([10]; Homo sapiens, NCI-H3122, H3122 cells, CTG (Cell Titer Glo)) of 41 nM.
